By inhibition is commonly meant the share of the control response that was lost under treatment.

The test concerns the target T1, purified human HDAC6 (Homo sapiens, UniProt Q9UBN7).
T1 construct: purchased BPS Bioscience 5006
T1 sequence (Q9UBN7 1-1215): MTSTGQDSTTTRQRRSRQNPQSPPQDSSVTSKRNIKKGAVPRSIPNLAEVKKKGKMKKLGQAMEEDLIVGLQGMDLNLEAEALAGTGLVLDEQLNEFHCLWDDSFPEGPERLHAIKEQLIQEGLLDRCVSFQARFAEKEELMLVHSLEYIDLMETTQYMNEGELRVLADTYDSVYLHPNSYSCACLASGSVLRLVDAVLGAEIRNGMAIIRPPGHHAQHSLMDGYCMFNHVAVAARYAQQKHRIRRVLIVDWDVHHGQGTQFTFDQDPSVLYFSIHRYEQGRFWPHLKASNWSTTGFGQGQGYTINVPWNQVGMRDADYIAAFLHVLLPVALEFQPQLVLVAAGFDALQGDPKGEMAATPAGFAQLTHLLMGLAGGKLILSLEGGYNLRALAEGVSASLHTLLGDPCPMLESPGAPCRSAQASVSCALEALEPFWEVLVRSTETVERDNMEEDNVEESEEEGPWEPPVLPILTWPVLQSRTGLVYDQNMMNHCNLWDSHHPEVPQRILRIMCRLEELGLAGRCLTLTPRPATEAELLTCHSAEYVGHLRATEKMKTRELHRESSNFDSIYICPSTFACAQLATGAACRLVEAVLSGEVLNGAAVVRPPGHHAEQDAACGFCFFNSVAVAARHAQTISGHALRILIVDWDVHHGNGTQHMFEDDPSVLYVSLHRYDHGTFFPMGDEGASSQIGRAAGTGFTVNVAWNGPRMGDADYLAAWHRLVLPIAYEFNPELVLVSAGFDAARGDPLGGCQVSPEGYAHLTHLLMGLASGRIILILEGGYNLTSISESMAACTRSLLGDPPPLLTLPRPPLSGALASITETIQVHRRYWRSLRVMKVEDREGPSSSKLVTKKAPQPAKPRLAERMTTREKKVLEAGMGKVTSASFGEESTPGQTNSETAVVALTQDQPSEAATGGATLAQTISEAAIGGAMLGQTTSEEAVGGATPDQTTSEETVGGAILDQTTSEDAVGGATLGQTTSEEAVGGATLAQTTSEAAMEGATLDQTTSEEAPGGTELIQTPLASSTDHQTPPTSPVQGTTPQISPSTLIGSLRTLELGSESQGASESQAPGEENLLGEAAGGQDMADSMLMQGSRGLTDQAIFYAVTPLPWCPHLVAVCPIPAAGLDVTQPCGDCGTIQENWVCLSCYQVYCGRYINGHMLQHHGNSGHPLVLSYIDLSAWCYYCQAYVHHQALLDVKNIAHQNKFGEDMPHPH
Description: HDAC6 Enzyme Assay. The test is classed as biochemical. The conditions noted are these: HDAC6 inhibition at a compound concentration of 0.412 μM; read-out: Percent Inhibition at 0.412 μM. As for the experimental part:
To measure the inhibition of HDAC6 activity, purified human HDAC6 (BPS Bioscience; Cat. No. 5006) is incubated with substrate Ac-Arg-Gly-Lys(Ac)-AMC peptide (Bachem Biosciences; Cat. No. I-1925) for 1 hour at 30° C. in the presence of test compounds or vehicle DMSO control. The reaction is stopped with the HDAC inhibitor trichostatin A (Sigma; Cat. No. T8552) and the amount of Arg-Gly-Lys-AMC generated is quantitated by digestion with trypsin (Sigma; Cat. No. T1426) and subsequent measurement of the amount of AMC released using a fluorescent plate reader (Pherastar; BMG Technologies) set at Ex 340 nm and Em 460 nm. Concentration response curves are generated by calculating the fluorescence increase in test compound-treated samples relative to DMSO-treated controls, and enzyme inhibition (IC50) values are determined from those curves.

Take `COc1ccc2c(c1)CC(C(=O)NO)CC2` (stereo not shown) [Compound I-1, N-hydroxy-7-methoxy-1,2,3,4-tetrahydronaphthalene-2-carboxamide]: the inhibition at 0.412 µM stood at 8%.
In the case of `O=C(Nc1cc(Oc2ccc3c(c2)C[C@@H](C(=O)NO)CC3)ccn1)C1CC1` [Compound I-2, (2S)-7-({2-[(cyclopropylcarbonyl)amino]pyridin-4-yl}oxy)-N-hydroxy-1,2,3,4-tetrahydronaphthalene-2-carboxamide] it was 90%.
In the case of `O=C(NO)C1CCc2ccccc2C1` (stereo not shown) [Compound I-3, N-hydroxy-1,2,3,4-tetrahydronaphthalene-2-carboxamide], the inhibition at 0.412 µM came to 33%.
Consider `O=C1CCc2c(Oc3ccc4c(c3)C[C@@H](C(=O)NO)CC4)ccnc2N1` [Compound I-4, (2S)—N-hydroxy-7-[(7-oxo-5,6,7,8-tetrahydro-1,8-naphthyridin-4-yl)oxy]-1,2,3,4-tetrahydronaphthalene-2-carboxamide], for which the inhibition at 0.412 µM stood at 85%.
Take `O=C(NO)C1CCc2ccc(OCc3ccncc3)cc2C1` (stereo not shown) [Compound I-5, N-hydroxy-7-(pyridin-4-ylmethoxy)-1,2,3,4-tetrahydronaphthalene-2-carboxamide]: the inhibition at 0.412 µM is 58%.
As to `O=C(NO)C1CCc2ccc(OCc3ccccc3)cc2C1` (stereo not shown) [Compound I-6, 7-(benzyloxy)-N-hydroxy-1,2,3,4-tetrahydronaphthalene-2-carboxamide], the inhibition at 0.412 µM worked out at 53%.
As for `CC(C)COc1ccc2c(c1)CC(C(=O)NO)CC2` (stereo not shown) [Compound I-7, N-hydroxy-7-isobutoxy-1,2,3,4-tetrahydronaphthalene-2-carboxamide], the inhibition at 0.412 µM turned out to be 57%.
In the case of `O=C(NO)C1CCc2ccc(Oc3ccccc3)cc2C1` (stereo not shown) [Compound I-8, N-hydroxy-7-phenoxy-1,2,3,4-tetrahydronaphthalene-2-carboxamide], the inhibition at 0.412 µM was determined as 73%.
As for `O=C(NO)C1CCc2ccc(Oc3cccc(Cl)c3)cc2C1` (stereo not shown) [Compound I-9, 7-(3-chlorophenoxy)-N-hydroxy-1,2,3,4-tetrahydronaphthalene-2-carboxamide], the inhibition at 0.412 µM is 74%.
Consider `COc1ccc2c(c1)CCC(C(=O)NO)C2` (stereo not shown) [Compound I-10, N-hydroxy-6-methoxy-1,2,3,4-tetrahydronaphthalene-2-carboxamide], for which the inhibition at 0.412 µM stood at 32%.
Then `O=C(NO)C1CCc2ccc(Oc3ccc(Cl)cc3)cc2C1` (stereo not shown) [Compound I-11, 7-(4-chlorophenoxy)-N-hydroxy-1,2,3,4-tetrahydronaphthalene-2-carboxamide], with 62%; and `O=C(NO)C1CCc2ccc(Oc3ccncc3)cc2C1` (stereo not shown) [Compound I-12, N-hydroxy-7-(pyridin-4-yloxy)-1,2,3,4-tetrahydronaphthalene-2-carboxamide], with 61%.
Regarding `O=C(NO)C1CCc2cc(Oc3ccnc(NC(=O)C4CC4)c3)ccc2C1` (stereo not shown) [Compound I-13, 6-({2-[(cyclopropylcarbonyl)amino]pyridin-4-yl}oxy)-N-hydroxy-1,2,3,4-tetrahydronaphthalene-2-carboxamide], the inhibition at 0.412 µM was determined as 74%.
Regarding `O=C1CCc2c(Oc3ccc4c(c3)CCC(C(=O)NO)C4)ccnc2N1` (stereo not shown) [Compound I-14, N-hydroxy-6-[(7-oxo-5,6,7,8-tetrahydro-1,8-naphthyridin-4-yl)oxy]-1,2,3,4-tetrahydronaphthalene-2-carboxamide], the inhibition at 0.412 µM worked out at 67%.
`COc1cccc2c1CC(C(=O)NO)CC2` (stereo not shown) [Compound I-15, N-hydroxy-8-methoxy-1,2,3,4-tetrahydronaphthalene-2-carboxamide]: the inhibition at 0.412 µM was found to be 25%.
Take `O=C(NO)C1CCc2cccc(Oc3ccnc(NC(=O)C4CC4)c3)c2C1` (stereo not shown) [Compound I-16, 8-({2-[(cyclopropylcarbonyl)amino]pyridin-4-yl}oxy)-N-hydroxy-1,2,3,4-tetrahydronaphthalene-2-carboxamide]: the inhibition at 0.412 µM came out at 13%.
On to `O=C(NO)C1CCc2ccc(-c3ccncc3)cc2C1` (stereo not shown) [Compound I-17, N-hydroxy-7-pyridin-4-yl-1,2,3,4-tetrahydronaphthalene-2-carboxamide], for which the inhibition at 0.412 µM was 60%.
Then `CC1(C(=O)Nc2ccc3c(c2)CC(C(=O)NO)CC3)CCNCC1` (stereo not shown) [Compound I-18, N-{7-[(hydroxyamino)carbonyl]-5,6,7,8-tetrahydronaphthalen-2-yl}-4-methylpiperidine-4-carboxamide], with 54%; and `O=C(NO)C1CCc2cc(Oc3cccc(Cl)c3)ccc2C1` (stereo not shown) [Compound I-19, 6-(3-chlorophenoxy)-N-hydroxy-1,2,3,4-tetrahydronaphthalene-2-carboxamide], with 23%.
With `CC(C)(C)OC(=O)Nc1ccc2c(c1)CC(C(=O)NO)CC2` (stereo not shown) [Compound I-20, tert-butyl {7-[(hydroxyamino)carbonyl]-5,6,7,8-tetrahydronaphthalen-2-yl}carbamate], the inhibition at 0.412 µM was 61%.
`CC(=O)Nc1cccc(Oc2ccc3c(c2)CC(C(=O)NO)CC3)c1` (stereo not shown) [Compound I-21, 7-[3-(acetylamino)phenoxy]-N-hydroxy-1,2,3,4-tetrahydronaphthalene-2-carboxamide]: the inhibition at 0.412 µM was determined as 80%.
Then `O=C(NO)C1CCc2ccc(NC(=O)C3CC3)cc2C1` (stereo not shown) [Compound I-22, 7-[(cyclopropylcarbonyl)amino]-N-hydroxy-1,2,3,4-tetrahydronaphthalene-2-carboxamide], with 72%; and `O=C(NO)C1CCc2ccc(Nc3ccccc3)cc2C1` (stereo not shown) [Compound I-23, 7-anilino-N-hydroxy-1,2,3,4-tetrahydronaphthalene-2-carboxamide], with 70%; and `CC(=O)Nc1cccc(-c2ccc3c(c2)CC(C(=O)NO)CC3)c1` (stereo not shown) [Compound I-24, 7-[3-(acetylamino)phenyl]-N-hydroxy-1,2,3,4-tetrahydronaphthalene-2-carboxamide], with 86%.
As to `O=C(NO)C1CCc2cc(Oc3ccccc3)ccc2C1` (stereo not shown) [Compound I-25, N-hydroxy-6-phenoxy-1,2,3,4-tetrahydronaphthalene-2-carboxamide], the inhibition at 0.412 µM worked out at 27%.
Then `O=C(NO)C1CCc2ccc(Nc3cccc(Cl)c3)cc2C1` (stereo not shown) [Compound I-26, 7-[(3-chlorophenyl)amino]-N-hydroxy-1,2,3,4-tetrahydronaphthalene-2-carboxamide], with 71%; and `O=C(NO)C1CCc2cc(Oc3ccncc3)ccc2C1` (stereo not shown) [Compound I-27, N-hydroxy-6-(pyridin-4-yloxy)-1,2,3,4-tetrahydronaphthalene-2-carboxamide], with 53%.
In the case of `O=C(NO)C1CCc2ccc(NS(=O)(=O)c3ccccc3)cc2C1` (stereo not shown) [Compound I-28, N-hydroxy-7-[(phenylsulfonyl)amino]-1,2,3,4-tetrahydronaphthalene-2-carboxamide] it was 65%.
In the case of `COc1ccc(C(=O)Nc2ccc3c(c2)CC(C(=O)NO)CC3)cc1` (stereo not shown) [Compound I-29, N-hydroxy-7-[(4-methoxybenzoyl)amino]-1,2,3,4-tetrahydronaphthalene-2-carboxamide] it was 81%; in that of `O=C(Nc1ccccc1)Nc1ccc2c(c1)CC(C(=O)NO)CC2` (stereo not shown) [Compound I-30, 7-[(Anilinocarbonyl)amino]-N-hydroxy-1,2,3,4-tetrahydronaphthalene-2-carboxamide], 86%; in that of `O=C1CCc2c(Oc3cc4c(cc3F)CCC(C(=O)NO)C4)ccnc2N1` (stereo not shown) [Compound I-31, 6-fluoro-N-hydroxy-7-[(7-oxo-5,6,7,8-tetrahydro-1,8-naphthyridin-4-yl)oxy]-1,2,3,4-tetrahydronaphthalene-2-carboxamide], 79%.

These data come from patent publication US20140243334A1, “SUBSTITUTED HYDOXAMIC ACIDS AND USES THEREOF” (Millennium Pharmaceuticals, Inc., priority 2010, published 2014).
